Five compounds from US20060110401A1, “Mixture of peptides from c and ns3 proteins of the hepatitis c virus and applications thereof” (priority 2002, published 2006) can be followed below.

Molecules are shown by their SMILES. pIC50: −log10 of the molar value. Read-outs that look alike come from different tables or passages of the source. Marks after values point to notes of the source that are not given here. Residues, ends and D or L forms follow the SMILES beside them.

One test addresses T1, HLA-DR1 (DRB1*0101) (Homo sapiens, UniProt P01903+P01911, A100R/D57E/F55L/F60I/F76Y/I96L/L162R/M171V/P40L/Q125E/R42F/V115G/Y59C).
T1 construct: endogenous in cells; host or cells: homozygous EBV-transformed human B lymphocyte lines; immunopurified with antibody L243
In words: biochemical. Format: binding. As to conditions: for pIC50: DRB1*0101.

A further test deals with HLA-DR7 (DRB1*0701) (Homo sapiens, UniProt P01903+P01911, A100R/A102G/A103Q/D57E/D86V/E43K/F76Y/K127E/L162R/M171V/P40G/Q125H/Q99D/R33Q/R42Y/R54Q/S133A/S66F/T210M/V115G/Y107V/Y59L/Y89S). In words: biochemical. Format: binding. The note with it: read-out: binds with good affinity to DR7.
Another test deals with HLA-DR11 (DRB1*1101) (Homo sapiens, UniProt P01903+P01911, A100R/A169T/A87E/I96F/K41T/L162R/M171V/P40S/Q125H/Q178H/Q39Y/Q99D/R42S/S66Y/T262R/V115G/W38E). Description: biochemical. The test is classed as binding. As to conditions: read-out: binds with good affinity to DR11.
HLA-DR11 (DRB1*1101), sequence (P01903 26-254 limits assumed, other chains not shown): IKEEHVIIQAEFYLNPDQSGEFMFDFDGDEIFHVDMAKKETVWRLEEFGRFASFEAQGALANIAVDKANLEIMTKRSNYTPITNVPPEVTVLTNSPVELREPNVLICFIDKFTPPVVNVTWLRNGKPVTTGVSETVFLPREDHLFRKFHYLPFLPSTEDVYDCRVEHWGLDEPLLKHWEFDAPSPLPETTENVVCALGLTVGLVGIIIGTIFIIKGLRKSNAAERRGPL
Another test has as its target HLA-DR13 (DRB1*1301) (Homo sapiens, UniProt P01903+P01911, A100E/A169T/K41T/L162R/M171V/P40S/Q125H/Q178H/Q39Y/Q99D/R42S/S66N/T262R/W38E/Y61H). Description: biochemical. The test is classed as binding.
For the next test, the target named is T2, HLA-DRB4 (DRB4*0101) (Homo sapiens, UniProt P01903+P13762, G164S).
T2 construct: endogenous in cells; host or cells: homozygous EBV-transformed human B lymphocyte lines; immunopurified with antibody L243
Description: biochemical. The test is classed as binding. As to conditions: read-out: binds with good affinity to DRB4.

Another test concerns the target T3, HLA-DRB5 (DRB5*0101) (Homo sapiens, UniProt P01903+Q30154).
T3 construct: endogenous in cells; host or cells: homozygous EBV-transformed human B lymphocyte lines; immunopurified with antibody L243
Description: biochemical. Format: binding. As to conditions: read-out: binds with good affinity to DRB5.

The test system of test [1] is T lymphocytes derived from PBMCs from patients chronically infected with HCV. The test is classed as cell-based, human.
For the next test, the system named is DR4. In words: DR4.
The subject of another test is DRB3. In words: DRB3.
A further test has as its system DRB4. Description: DRB4. An excerpt: (§1) Table printed on a drawing sheet, Figure 2
Where the first naming reader finds the target: head: DRB4

For a further test, the system named is DRB5. In words: DRB5.
The target of the next test is T4, HLA-DR4 (DRB1*0401) (Homo sapiens, UniProt P01903+P01911, A100K/A169T/F76Y/I96L/K127E/L162R/M171V/N62H/P40V/Q125Y/R42H/S133A/S149N/S66Y/V115G/V209L/W38E).
T4 construct: endogenous in cells; host or cells: homozygous EBV-transformed human B lymphocyte lines; immunopurified with antibody L243
In words: biochemical. As to conditions: read-out: binds with good affinity to DR4. Format: binding.

The next test deals with DR1. In words: DR1.
The next test concerns DR15. Description: DR15.
Another test deals with DR11. In words: DR11.
Description: as §1
Where the first naming reader finds the target: head: DR11

For the next test, the system named is DP401. In words: DP401.
Another test has as its system DP402. Description: DP402.
The test system of the next test is DR3. Description: DR3.
Description: as §1
Where the first naming reader finds the target: head: DR3

Setting [2] is: read-out: binds with good affinity to DR1.
The mark [3] stands for this setting: patient 067, supernatant 48 h, —: not detected.
[4] abbreviates: patient 078, supernatant 48 h, —: not detected.
[5] abbreviates: patient 093, supernatant 48 h, —: not detected.
Where [6] appears, read: patient 659, supernatant 48 h, —: not detected.
Setting [7] is: patient 815, supernatant 48 h, —: not detected.

Take `CC[C@H](C)[C@H](NC(=O)[C@H](CC(C)C)NC(=O)[C@H](Cc1c[nH]cn1)NC(=O)[C@H](CCCNC(=N)N)NC(=O)CNC(=O)CNC(=O)[C@H](CCCCN)NC(=O)[C@@H](NC(=O)[C@@H](NC(=O)[C@H](CCC(=O)O)NC(=O)[C@H](CC(C)C)NC(=O)[C@@H]1CCCN1C(=O)[C@@H](NC(=O)[C@H](C)NC(=O)[C@H](CCCCN)NC(=O)CN)[C@@H](C)CC)C(C)C)[C@@H](C)CC)C(=O)N[C@@H](Cc1ccccc1)C(=O)N[C@@H](CS)C(=O)N[C@@H](Cc1c[nH]cn1)C(=O)N[C@@H](CO)C(=O)N[C@@H](CCCCN)C(=O)N[C@@H](CCCCN)C(=O)N[C@@H](CCCCN)C(=O)N[C@@H](C)C(=O)N[C@@H](CC(=O)O)C(=O)N[C@@H](CCC(=O)O)C(=O)N[C@@H](CC(C)C)C(=O)O` [23N 1377-1403] (H-GKAIPLEVIKGGRHLIFCHSKKKADEL-OH; N-terminus and C-terminus assumed): the pIC50 at HLA-DR1 (DRB1*0101) (setting [2]), at HLA-DR7 (DRB1*0701), on HLA-DR11 (DRB1*1101), on HLA-DR13 (DRB1*1301) (read-out: binds with good affinity to DR13), on HLA-DRB4 (DRB4*0101) and on HLA-DRB5 (DRB5*0101) was greater than 6.00 throughout. The pIC50 was 5.52 in the test with DR4, less than 5.00 in the test on DRB3, 6.05 in the test with DRB4 and 8.52 in the test on DRB5. The IL2 entry in test [1] (setting [3]) was “— 51 pg/ml”; in [1] (setting [7]) it was 58 pg/mL. Further, the IL10 in test [1] (setting [4]) is 54 pg/mL; in [1] (setting [6]), 29 pg/mL; in test [1] (patient 815, assay at 24 h instead of 48 h), 63* — pg/ml. The compound also showed an IFNγ in test [1] (setting [5]) of 57 pg/mL. For the same compound, in test [1] (setting [5]), the IL4 is 23 pg/mL.

Turning to `CC[C@H](C)[C@H](NC(=O)[C@H](Cc1c[nH]cn1)NC(=O)[C@H](CCCNC(=N)N)NC(=O)[C@@H](NC(=O)[C@@H](NC(=O)[C@H](CC(C)C)NC(=O)[C@H](CCCNC(=N)N)NC(=O)[C@@H](NC(=O)[C@H](CCCNC(=N)N)NC(=O)[C@H](CCC(=O)O)NC(=O)[C@@H](N)[C@@H](C)O)C(C)C)C(C)C)[C@@H](C)O)C(=O)N[C@@H](Cc1ccc(O)cc1)C(=O)N[C@@H](CC(N)=O)C(=O)N[C@@H](CCCNC(=N)N)C(=O)N[C@@H](CCC(=O)O)C(=O)N[C@@H](CCC(=O)O)C(=O)O` [B1 21-36, reference compound] (H-TERVRLVTRHIYNREE-OH; N-terminus and C-terminus assumed), the pIC50 on HLA-DR13 (DRB1*1301) (tracer B1 21-36, read-out: IC50, binding to HLA-DR13) was 6.48.

In the case of `CC(C)C[C@H](NC(=O)[C@H](Cc1c[nH]cn1)NC(=O)[C@H](C)NC(=O)[C@@H](NC(=O)[C@H](CCC(N)=O)NC(=O)[C@H](Cc1ccccc1)NC(=O)[C@H](CO)NC(=O)[C@H](CCC(N)=O)NC(=O)[C@@H]1CCCN1C(=O)[C@@H](NC(=O)[C@@H](NC(=O)[C@@H]1CCCN1C(=O)[C@@H]1CCCN1C(=O)[C@H](CO)NC(=O)[C@H](CO)NC(=O)[C@H](CC(N)=O)NC(=O)[C@H](CC(=O)O)NC(=O)[C@@H](NC(=O)[C@H](Cc1ccccc1)NC(=O)[C@@H](NC(=O)[C@@H]1CCCN1C(=O)[C@H](CO)NC(=O)[C@@H](N)CCCNC(=N)N)C(C)C)[C@@H](C)O)C(C)C)C(C)C)C(C)C)C(=O)N[C@@H](Cc1c[nH]cn1)C(=O)N[C@@H](C)C(=O)N1CCC[C@H]1C(=O)N[C@H](C(=O)NCC(=O)N[C@@H](CO)C(=O)NCC(=O)N[C@@H](CCCCN)C(=O)N[C@@H](CO)C(=O)N[C@H](C(=O)N[C@@H](CCCCN)C(=O)O)[C@@H](C)O)[C@@H](C)O` [17N 1206-1239], the pIC50 was greater than 6.00 on HLA-DR1 (DRB1*0101) (setting [2]); greater than 6.00 at HLA-DR4 (DRB1*0401); greater than 6.00 at HLA-DR7 (DRB1*0701); greater than 6.00 on HLA-DR11 (DRB1*1101); greater than 6.00 at HLA-DRB5 (DRB5*0101); 7.26 with DR1. Also, the pIC50 with DR4 was 6.37; in the test on DR15, 5.00; in the test with DRB3, 5.28; with DRB4, 5.41; in the test with DR11, 6.26; in the test with DP401 it was 4.19. Further, in the test with DP402, the pIC50 was 4.84.

With `CC[C@H](C)[C@H](NC(=O)[C@H](Cc1ccccc1)NC(=O)[C@H](CC(=O)O)NC(=O)[C@@H](NC(=O)[C@H](C)NC(=O)[C@H](CCCCN)NC(=O)[C@H](C)N)C(C)C)C(=O)N1CCC[C@H]1C(=O)N[C@H](C(=O)N[C@@H](CCC(=O)O)C(=O)N[C@@H](CC(N)=O)C(=O)N[C@@H](CC(C)C)C(=O)N[C@@H](CCC(=O)O)C(=O)N[C@H](C(=O)N[C@H](C(=O)N[C@@H](CCSC)C(=O)N[C@@H](CCCNC(=N)N)C(=O)N[C@@H](CO)C(=O)N1CCC[C@H]1C(=O)N[C@H](C(=O)N[C@@H](Cc1ccccc1)C(=O)N[C@H](C(=O)N[C@@H](CC(=O)O)C(=O)O)[C@@H](C)O)C(C)C)[C@@H](C)O)[C@@H](C)O)C(C)C` [16N 1190-1212], the IL2 entry in test [1] (setting [3]) was “— 85 pg/ml”; in test [1] (setting [4]), “— 17 pg/ml”; in test [1] (setting [5]), 5 pg/mL; in [1] (setting [6]), 18 pg/mL; in test [1] (setting [7]), 72 pg/mL. Also, the IL10 in [1] (setting [7]) came to 123 pg/mL. The pIC50 is 6.22 in the test on DR1, 6.15 in the test on DR15, 5.39 with DP401 and 5.84 in the test with DP402.

As to `CC(C)C[C@H](NC(=O)[C@H](Cc1c[nH]c2ccccc12)NC(=O)CNC(=O)[C@H](C)NC(=O)[C@@H](N)Cc1c[nH]c2ccccc12)C(=O)N[C@@H](CC(C)C)C(=O)N[C@@H](CO)C(=O)N1CCC[C@H]1C(=O)N[C@@H](CCCNC(=N)N)C(=O)NCC(=O)N[C@@H](CO)C(=O)N[C@@H](CCCNC(=N)N)C(=O)N1CCC[C@H]1C(=O)N[C@@H](CO)C(=O)N[C@@H](Cc1c[nH]c2ccccc12)C(=O)O` [3C 93-107] (H-WAGWLLSPRGSRPSW-OH; N-terminus and C-terminus assumed), the pIC50 on HLA-DR1 (DRB1*0101) (competition with biotinylated tracer HA 306-318, read-out: IC50, binding to HLA-DR1) is 5.20; with DR3, 4.30; in the test with DR4, 4.22; in the test with DR15 it was 4.56; in the test with DRB3, less than 4.00; with DRB4 it was 5.30. Besides, the pIC50 was 5.59 with DRB5, 7.06 in the test with DR11 and less than 4.00 in the test on DP402. In addition, the “affinity for HLA-DR1 (in words)” value on HLA-DR1 (DRB1*0101) (legend of FIG. 4) is “low affinity”.
